Patent publication US9079913B2, “Spiro-oxindole MDM2 antagonists” (The Regents of the University of Michigan, priority 2009, dated 2015)
Where two headings read alike, the source gives them in different places. Each block holds one compound with its values, some of them ahead of it.

Key:
[1] = Pharmacokinetic studies in rats; type: in vivo, rat; conditions: for oral bioavailability / oral pharmacokinetics in rats (in words): oral dosing
Description: Pharmacokinetic studies on MDM2 inhibitors were carried out in rat. For comparison, the MDM2 inhibitor, AT-219, was also studied.

[2] = test system: cancer cell lines with wild-type p53 / mutated or deleted p53 (ATCC); assay: Cell growth assay (WST-8), other cancer cell lines; type: cell-based
[3] = molecular target: recombinant human His-tagged MDM2 protein (residues 1-118) (Homo sapiens (Human), UniProt Q00987); assay: Fluorescence-polarization MDM2 binding assay; conditions: for IC50: Table 19A, FP binding assay, read-out: MDM2 IC50;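 for all read-outs here: fluorescence polarization read after three hours of incubation in potassium phosphate buffer containing bovine gamma globulin and Triton X-100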
Sequence of recombinant human His-tagged MDM2 protein (residues 1-118) (Q00987 1-118): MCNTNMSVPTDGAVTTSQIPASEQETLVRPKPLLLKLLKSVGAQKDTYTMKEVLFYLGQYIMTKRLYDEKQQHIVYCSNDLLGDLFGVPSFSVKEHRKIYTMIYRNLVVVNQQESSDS

[4] = test system: Isogenic HCT-116 colon cancer cell lines; assay: cells; type: cell-based;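 note: cells grown in 96-well plates in McCoy's 5A medium with 10% FBS, exposed to compound for 4 days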
Description: Cells were seeded in 96-well flat bottom cell culture plates at a density of 2−3×10^3 cells/well with compounds and incubated for 4 days.

SJSA-1 xenograft tumors = assay: In vivo efficacy, SJSA-1 xenograft model (tumor volume); set-up: species or system C.B-17 SCID mice; conditions: PO 100 mg/kg; for % Tumor Growth Inhib. T/C Control 750 mm^3 D24: Exp. No. 2, SJSA-1 xenograft; for % Tumor Growth Inhib. T/C Control 750 mm^3 D27: Exp. No. 1, SJSA-1 xenograft
Description: SJSA-1 tumor cells were harvested with Trypsin (0.05%)-EDTA (0.53 mM) (GIBCO™, Invitrogen Corp.), growth medium added and cells placed on ice. A cell sample was mixed 1:1 with Trypan Blue (GIBCO™, Invitrogen Corp.) and counted on a hemocytometer to determine the number of live/dead cells. Cells were washed once with 1×PBS (GIBCO™, Invitrogen Corp.) and resuspended in PBS. For Matrigel injections, after washing in PBS, cells are resuspended in an ice cold mixture of 1:1 PBS and Matrigel (BD Biosciences, Invitrogen Corp.) for a final Matrigel protein concentration of 5 mg/ml. SJSA-1 tumors were inoculated into C.B-17 SCID mice at 5×10^6 cells in 0.1 ml with Matrigel. Cells were injected s.c. into the flank region of each mouse using a 27 gauge needle.
The size of tumors growing in the mice was measured in two dimensions using calipers. Tumor volume (mm^3)=(A×B2)/2 where A and B are the tumor length and width (in mm), respectively. During treatment, tumor volume and body weight was measured three times a week. […] Mice were kept for an additional 60 days for further observation of tumor growth and toxicity.
Mice with tumors within acceptable size range were randomized into treatment groups of 8 mice for experimental compounds and 10 mice for the Control group. Experimental compounds were given orally, once per day for 2-3 weeks.

[5] = In vitro microsomal stability, rat; type: in vitro ADME; conditions: for microsomal stability (in words) / % of compound remaining when incubated in rat liver microsomes with NADPH: rat liver microsomes; for Microsomal stability, % remaining: Rat microsomes
[6] = In vitro microsomal stability, human; type: in vitro ADME; conditions: for microsomal stability (in words) / % of compound remaining when incubated in human liver microsomes with NADPH: human liver microsomes; for Microsomal stability, % remaining: Human microsomes
[7] = In vitro microsomal stability, dog; type: in vitro ADME; conditions: for Microsomal stability, % remaining: Dog microsomes
[8] = Microsomal stability study, negative control incubation; type: in vitro ADME
[9] = Homo sapiens, LNCaP, Table 19A, LNCAP cells, p53 wild-type, cell growth, read-out: LNCAP (p53 wild-type) IC50
[10] = Homo sapiens, SJSA-1, Table 19A, SJSA-1 cells, p53 wild-type, cell growth, read-out: SJSA-1 (p53 wild-type) IC50
[11] = Homo sapiens, HCT-116, read-out: HCT-116 (p53-/-) IC50, Table 19A, HCT-116 p53-/-, cell growth
[12] = Homo sapiens, HCT-116, read-out: HCT-116 (p53 wild-type) IC50, Table 19A, HCT-116 p53 wild-type, cell growth
[13] = Homo sapiens, PC-3, Table 19A, PC-3 cells, deleted p53, cell growth, read-out: PC-3 (deleted p53) IC50
[14] = rat, IV, 5 mg/kg, plasma, parent compound
[15] = Homo sapiens, LNCaP, read-out: LNCAP (p53 wild-type) IC50
[16] = Homo sapiens, PC-3, read-out: PC-3 (deleted p53) IC50
[17] = Homo sapiens, SJSA-1, read-out: SJSA-1 (p53 wild-type) IC50
[18] = Homo sapiens, HCT-116, read-out: HCT-116 (p53-/-) IC50
[19] = Homo sapiens, HCT-116, read-out: HCT-116 (p53 wild-type) IC50

Structure (SMILES): C[C@H](N)C(=O)OC1CCC(NC(=O)[C@@H]2N[C@H](CC(C)(C)C)[C@]3(C(=O)Nc4cc(Cl)ccc43)[C@H]2c2cccc(Cl)c2F)CC1 (some centres unmarked) [MI-774]
oral bioavailability / oral pharmacokinetics in rats (in words) ([1]; rats): good oral bioavailability
IC50 [2, 9]: 0.3 µM
IC50 [2, 10]: 0.3 ± 0.1 µM
IC50 [3]: < 0.1 µM
IC50 [4, 11]: 5.6 µM
IC50 [4, 12]: 0.3 ± 0.1 µM
% Tumor Growth Inhib. T/C Control 750 mm^3 D24 (SJSA-1 xenograft tumors): 21.4%

Structure (SMILES): CC(C)(C)C[C@H]1N[C@@H](C(=O)NCCN2CCN(S(C)(=O)=O)CC2)[C@H](c2cccc(Cl)c2F)[C@@]12C(=O)Nc1cc(Cl)ccc12 [MI-519-49]
IC50 [2, 9]: 0.85 µM
IC50 [2, 13]: 8.1 µM
IC50 [3]: < 1 µM
IC50 [4, 11]: 12.7 µM
IC50 [4, 12]: 0.84 µM
% Tumor Growth Inhib. T/C Control 750 mm^3 D27 (SJSA-1 xenograft tumors): 63.8%

Structure (SMILES): CC(C)(C)C[C@H]1N[C@@H](C(N)=O)[C@H](c2cccc(Cl)c2F)[C@@]12C(=O)Nc1cc(Cl)ccc12 [MI-519-50]
IC50 [2, 9]: 1.3 ± 0.4 µM
IC50 [2, 13]: 16.9 ± 4.5 µM
IC50 [2, 10]: 1.7 ± 1.7 µM
IC50 [3]: < 1 µM
IC50 [4, 11]: 23.7 µM
IC50 [4, 12]: 0.9 ± 0.2 µM
% Tumor Growth Inhib. T/C Control 750 mm^3 D27 (SJSA-1 xenograft tumors): 41.1%

Structure (SMILES): CC(C)(C)C[C@H]1N[C@@H](C(=O)NC2CCC(NS(C)(=O)=O)CC2)[C@H](c2cccc(Cl)c2F)[C@@]12C(=O)Nc1cc(Cl)ccc12 (some centres unmarked) [MI-772]
oral bioavailability / oral pharmacokinetics in rats (in words) ([1]; rats): modest oral bioavailability
CLz [1, 14]: 16.7 mL/min/kg
Vz [1, 14]: 10.9 L/kg
half-life in rats (in words) ([1]; rats, intravenous and oral): long plasma half-life
relative potency vs epimer, binding and cellular studies (in words) [2]: several times more potent than MI-771
IC50 ([2]; Table 19A, LNCAP cells, p53 wild-type, cell growth, read-out: LNCAP (p53 wild-type) IC50): < 1 µM
IC50 ([2]; Table 19A, PC-3 cells, deleted p53, cell growth, read-out: PC-3 (deleted p53) IC50): > 5 µM
IC50 ([2]; Table 19A, SJSA-1 cells, p53 wild-type, cell growth, read-out: SJSA-1 (p53 wild-type) IC50): < 1 µM
cell growth inhibition (in words) ([2]; cancer cell lines with wild-type p53): effectively inhibit cell growth
IC50 [3]: < 1 µM
binding to MDM2 (in words) ([3]; human MDM2 protein): high affinities
IC50 ([4]; read-out: HCT-116 (p53-/-) IC50, Table 19A, HCT-116 p53-/-, cell growth): > 5 µM
IC50 ([4]; read-out: HCT-116 (p53 wild-type) IC50, Table 19A, HCT-116 p53 wild-type, cell growth): < 1 µM
microsomal stability (in words) [5]: very stable
t1/2 ([5]; rat liver microsomes with NADPH): >60 min
% of compound remaining when incubated in rat liver microsomes with NADPH ([5]; 0 min): 100.00%
% of compound remaining when incubated in rat liver microsomes with NADPH ([5]; 5 min): 93.46%
% of compound remaining when incubated in rat liver microsomes with NADPH ([5]; 10 min): 91.15%
% of compound remaining when incubated in rat liver microsomes with NADPH ([5]; 15 min): 89.04%
% of compound remaining when incubated in rat liver microsomes with NADPH ([5]; 30 min): 88.27%
% of compound remaining when incubated in rat liver microsomes with NADPH ([5]; 45 min): 78.65%
% of compound remaining when incubated in rat liver microsomes with NADPH ([5]; 60 min): 75.96%
microsomal stability (in words) [6]: very stable
t1/2 ([6]; human liver microsomes with NADPH): >60 min
% of compound remaining when incubated in human liver microsomes with NADPH ([6]; 0 min): 100.00%
% of compound remaining when incubated in human liver microsomes with NADPH ([6]; 5 min): 95.37%
% of compound remaining when incubated in human liver microsomes with NADPH ([6]; 10 min): 86.87%
% of compound remaining when incubated in human liver microsomes with NADPH ([6]; 15 min): 82.24%
% of compound remaining when incubated in human liver microsomes with NADPH ([6]; 30 min): 77.91%
% of compound remaining when incubated in human liver microsomes with NADPH ([6]; 45 min): 63.28%
% of compound remaining when incubated in human liver microsomes with NADPH ([6]; 60 min): 56.87%
% Tumor Growth Inhib. T/C Control 750 mm^3 D24 (SJSA-1 xenograft tumors): 71.1%

Structure (SMILES): CC(C)(C)C[C@H]1N[C@@H](C(=O)NCC(C)(C)O)[C@H](c2cccc(Cl)c2F)[C@@]12C(=O)Nc1cc(Cl)ccc12 [MI-519-62]
IC50 [2, 15]: < 3 µM
IC50 [2, 16]: > 10 µM
IC50 [2, 17]: < 3 µM
IC50 [4, 18]: > 10 µM
IC50 [4, 19]: < 3 µM
% Tumor Growth Inhib. T/C Control 750 mm^3 D24 (SJSA-1 xenograft tumors): 59.5%

Structure (SMILES): CC(C)(C)C[C@H]1N[C@@H](C(=O)N[C@H]2CC[C@@H](O)C2)[C@H](c2cccc(Cl)c2F)[C@@]12C(=O)Nc1cc(Cl)ccc12 [MI-519-51]
CLz [1, 14]: 75 mL/min/kg
Vd ([1]; rat, plasma, iv, 5 mg/kg, rat, IV, 5 mg/kg, plasma, parent compound, read-out: Vz): 7.5 L/kg
pharmacokinetic profile (in words) ([1]; rats, intravenous and oral routes of dosing): inferior overall PK parameters to MI-219
IC50 [2, 15]: 0.6 ± 0.2 µM
IC50 [2, 16]: 8.2 ± 2.5 µM
IC50 [2, 17]: 0.6 ± 0.2 µM
IC50 [4, 18]: 13.4 ± 0.8 µM
IC50 [4, 19]: 0.6 ± 0.3 µM
microsomal stability (in words) [5]: inferior stability to MI-219
% of compound remaining when incubated in rat liver microsomes with NADPH ([5]; 0 min): 100.00%
% of compound remaining when incubated in rat liver microsomes with NADPH ([5]; 5 min): 12.77%
% of compound remaining when incubated in rat liver microsomes with NADPH ([5]; 10 min): 2.84%
% of compound remaining when incubated in rat liver microsomes with NADPH ([5]; 15 min): 0.83%
% of compound remaining when incubated in rat liver microsomes with NADPH ([5]; 30 min): 0.00%
% of compound remaining when incubated in rat liver microsomes with NADPH ([5]; 45 min): 0.00%
% of compound remaining when incubated in rat liver microsomes with NADPH ([5]; 60 min): 0.00%
half-life ([5]; rat, liver microsomes, rat liver microsomes with NADPH): 2.18 min
microsomal stability (in words) [6]: inferior stability to MI-219
% of compound remaining when incubated in human liver microsomes with NADPH ([6]; 0 min): 100.00%
% of compound remaining when incubated in human liver microsomes with NADPH ([6]; 5 min): 36.05%
% of compound remaining when incubated in human liver microsomes with NADPH ([6]; 10 min): 9.88%
% of compound remaining when incubated in human liver microsomes with NADPH ([6]; 15 min): 3.95%
% of compound remaining when incubated in human liver microsomes with NADPH ([6]; 30 min): 0.00%
% of compound remaining when incubated in human liver microsomes with NADPH ([6]; 45 min): 0.00%
% of compound remaining when incubated in human liver microsomes with NADPH ([6]; 60 min): 0.00%
half-life ([6]; human, liver microsomes, human liver microsomes with NADPH): 3.15 min
% Tumor Growth Inhib. T/C Control 750 mm^3 D27 (SJSA-1 xenograft tumors): 34.0%

Microsomal stability, % remaining ([7]; 0 min): 100.00%
Microsomal stability, % remaining ([7]; 5 min): 108.25%
Microsomal stability, % remaining ([7]; 10 min): 69.29%
Microsomal stability, % remaining ([7]; 15 min): 57.20%
Microsomal stability, % remaining ([7]; 30 min): 41.84%
Microsomal stability, % remaining ([7]; 45 min): 29.39%
Microsomal stability, % remaining ([7]; 60 min): 27.06%
microsomal stability (in words) ([7]; dog microsomes): metabolized fairly rapidly
Microsomal stability, % remaining ([5]; 0 min): 100.00%
Microsomal stability, % remaining ([5]; 5 min): 64.80%
Microsomal stability, % remaining ([5]; 10 min): 41.96%
Microsomal stability, % remaining ([5]; 15 min): 30.71%
Microsomal stability, % remaining ([5]; 30 min): 23.11%
Microsomal stability, % remaining ([5]; 45 min): 23.01%
Microsomal stability, % remaining ([5]; 60 min): 24.01%
microsomal stability (in words) [5]: metabolized fairly rapidly
Microsomal stability, % remaining ([6]; 0 min): 100.00%
Microsomal stability, % remaining ([6]; 5 min): 82.09%
Microsomal stability, % remaining ([6]; 10 min): 60.88%
Microsomal stability, % remaining ([6]; 15 min): 43.86%
Microsomal stability, % remaining ([6]; 30 min): 24.79%
Microsomal stability, % remaining ([6]; 45 min): 10.66%
Microsomal stability, % remaining ([6]; 60 min): 16.31%
microsomal stability (in words) [6]: metabolized fairly rapidly
Microsomal stability, % remaining ([8]; 0 min): 100.00%
Microsomal stability, % remaining ([8]; 5 min): 95.37%
Microsomal stability, % remaining ([8]; 10 min): 90.75%
Microsomal stability, % remaining ([8]; 15 min): 96.26%
Microsomal stability, % remaining ([8]; 30 min): 86.12%
Microsomal stability, % remaining ([8]; 45 min): 91.41%
Microsomal stability, % remaining ([8]; 60 min): 85.90%
Structure (SMILES): CC(C)(C)C[C@H]1N[C@@H](C(=O)NCC[C@H](O)CO)[C@H](c2ccc(F)c(Cl)c2)[C@@]12C(=O)Nc1cc(Cl)c(F)cc12 [MI-319, reference compound]

Structure (SMILES): CCNC(=O)N1CCC(NC(=O)[C@@H]2N[C@H](CC(C)(C)C)[C@]3(C(=O)Nc4cc(Cl)ccc43)[C@H]2c2cccc(Cl)c2F)CC1 [MI-781]
IC50 [2, 10]: 0.7 µM
IC50 [3]: < 0.1 µM
IC50 [4, 11]: 10.1 µM
IC50 [4, 12]: 0.4 µM
% Tumor Growth Inhib. T/C Control 750 mm^3 D24 (SJSA-1 xenograft tumors): 75.5%

Structure (SMILES): CC(C)(C)C[C@H]1N[C@@H](C(=O)NC2CCN(S(C)(=O)=O)CC2)[C@H](c2cccc(Cl)c2F)[C@@]12C(=O)Nc1cc(Cl)ccc12 [MI-779]
IC50 [2, 9]: 1.3 µM
IC50 [2, 13]: 11.6 µM
IC50 [2, 10]: 1 µM
IC50 [3]: < 0.1 µM
IC50 [4, 11]: 13.6 µM
IC50 [4, 12]: 2.5 µM
% Tumor Growth Inhib. T/C Control 750 mm^3 D24 (SJSA-1 xenograft tumors): 66.1%
